Numbers after ± are expanded uncertainties.
Experiment: refractive index (Na D-line) (dimensionless); wn = mass fraction of the nth substance listed
Details: 101.33 kPa, Liquid, Standard Abbe refractometry

OCCCO [propan-1,3-diol] + O
refractive index
Details	w1 = 0.1113	w1 = 0.2226	w1 = 0.334	w1 = 0.4453	w1 = 0.501	w1 = 0.6123	w1 = 0.7236	w1 = 0.8349	w1 = 0.9277	w1 = 1
278.15 K	1.3466 ± 0.001	1.3599 ± 0.001	1.374 ± 0.001	1.3866 ± 0.001	1.3931 ± 0.001	1.4066 ± 0.001	1.4181 ± 0.001	1.4289 ± 0.001	1.4371 ± 0.001	1.4436 ± 0.001
283.15 K	1.3462 ± 0.001	1.3592 ± 0.001	1.3729 ± 0.001	1.3856 ± 0.001	1.3921 ± 0.001	1.4055 ± 0.001	1.4169 ± 0.001	1.4276 ± 0.001	1.4358 ± 0.001	1.4423 ± 0.001
288.15 K	1.3457 ± 0.001	1.3586 ± 0.001	1.3719 ± 0.001	1.3845 ± 0.001	1.391 ± 0.001	1.4041 ± 0.001	1.4157 ± 0.001	1.4263 ± 0.001	1.4345 ± 0.001	1.4409 ± 0.001
293.15 K	1.3452 ± 0.001	1.3579 ± 0.001	1.371 ± 0.001	1.3835 ± 0.001	1.3899 ± 0.001	1.4029 ± 0.001	1.4145 ± 0.001	1.425 ± 0.001	1.4332 ± 0.001	1.4395 ± 0.001
298.15 K	1.3446 ± 0.001	1.3572 ± 0.001	1.3702 ± 0.001	1.3825 ± 0.001	1.3888 ± 0.001	1.4015 ± 0.001	1.4133 ± 0.001	1.4237 ± 0.001	1.4319 ± 0.001	1.4381 ± 0.001
303.15 K	1.344 ± 0.001	1.3564 ± 0.001	1.3693 ± 0.001	1.3815 ± 0.001	1.3876 ± 0.001	1.4002 ± 0.001	1.4118 ± 0.001	1.4224 ± 0.001	1.4304 ± 0.001	1.4368 ± 0.001
308.15 K	1.3434 ± 0.001	1.3558 ± 0.001	1.3684 ± 0.001	1.3804 ± 0.001	1.3865 ± 0.001	1.3989 ± 0.001	1.4103 ± 0.001	1.4211 ± 0.001	1.4289 ± 0.001	1.4354 ± 0.001
313.15 K	1.3426 ± 0.001	1.355 ± 0.001	1.3676 ± 0.001	1.3793 ± 0.001	1.3854 ± 0.001	1.3977 ± 0.001	1.4089 ± 0.001	1.4197 ± 0.001	1.4275 ± 0.001	1.434 ± 0.001
318.15 K	1.3418 ± 0.001	1.3541 ± 0.001	1.3668 ± 0.001	1.3782 ± 0.001	1.3845 ± 0.001	1.3965 ± 0.001	1.4075 ± 0.001	1.4182 ± 0.001	1.4261 ± 0.001	1.4325 ± 0.001

— the NIST ThermoML archive (doi:10.1021/acs.jced.8b00403)
